One may read the solubility as how much of the substance goes into solution per volume. Read a low solubility as little dissolved substance. In general, EC50 refers to the concentration at which the effect is half-maximal.

Series [1] is described as follows: Aqueous solubility of the compound in FASSIF. Format: physicochemical.
Series [2] deals with T1, Extracellular calcium-sensing receptor (Homo sapiens) (UniProt P41180).
T1 sequence (whole entry): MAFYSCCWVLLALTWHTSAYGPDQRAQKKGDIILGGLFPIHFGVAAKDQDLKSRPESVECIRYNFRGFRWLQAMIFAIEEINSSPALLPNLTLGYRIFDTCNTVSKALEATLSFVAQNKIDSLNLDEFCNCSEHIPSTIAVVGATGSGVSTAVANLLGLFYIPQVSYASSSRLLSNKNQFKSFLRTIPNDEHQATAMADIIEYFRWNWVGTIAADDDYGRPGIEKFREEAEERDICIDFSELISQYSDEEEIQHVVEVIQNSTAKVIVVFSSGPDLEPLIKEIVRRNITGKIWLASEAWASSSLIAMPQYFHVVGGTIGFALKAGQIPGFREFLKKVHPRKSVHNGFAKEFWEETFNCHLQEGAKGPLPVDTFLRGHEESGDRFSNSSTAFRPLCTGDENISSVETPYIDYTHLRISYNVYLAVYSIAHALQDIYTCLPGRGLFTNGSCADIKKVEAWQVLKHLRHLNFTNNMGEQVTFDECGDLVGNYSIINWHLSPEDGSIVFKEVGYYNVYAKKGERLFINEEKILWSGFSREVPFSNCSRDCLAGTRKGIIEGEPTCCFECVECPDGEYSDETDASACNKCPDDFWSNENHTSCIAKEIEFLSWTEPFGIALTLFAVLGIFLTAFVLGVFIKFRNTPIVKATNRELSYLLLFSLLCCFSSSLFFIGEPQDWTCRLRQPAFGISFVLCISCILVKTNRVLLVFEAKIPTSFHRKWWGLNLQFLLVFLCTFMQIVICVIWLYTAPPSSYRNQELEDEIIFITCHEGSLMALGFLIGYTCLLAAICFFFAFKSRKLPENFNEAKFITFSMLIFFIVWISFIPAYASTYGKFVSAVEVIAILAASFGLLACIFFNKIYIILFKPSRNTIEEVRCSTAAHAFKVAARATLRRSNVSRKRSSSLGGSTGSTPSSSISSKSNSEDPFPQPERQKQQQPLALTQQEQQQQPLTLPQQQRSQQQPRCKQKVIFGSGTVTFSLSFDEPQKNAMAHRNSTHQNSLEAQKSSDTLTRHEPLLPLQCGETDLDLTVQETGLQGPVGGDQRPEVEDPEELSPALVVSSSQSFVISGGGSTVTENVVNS
The series is described as follows: (§1) Agonist activity at human CaSR expressed in HEK293 cells assessed as increase in intracellular calcium mobilization by fluo-4AM dye based FLIPR assay. It is filed as functional, cell-based.

The target of series [3] is T2, Extracellular calcium-sensing receptor (Homo sapiens, UniProt P41180).
T2 sequence (P41180 whole entry): T1 sequence (whole entry)
Described as §1. The following applies: read-out: EC50. Format: functional, cell-based.

As for `C[C@@H](N[C@H]1CCN(c2ccc(C(=O)NCCCN3CCC(C(=O)O)CC3)cc2)C1)c1cccc2ccccc12`, the solubility in series [1] was more than 1000 µg/mL. For the same molecule, the %max in series [2] fell in the range of 84 to 93%. Also, the EC50 in series [3] is 50 nM.
